From patent EP4714441A1, “COMPOSITION FOR PREVENTING OR ALLEVIATING HEPATIC DYSFUNCTION” (KIRIN HOLDINGS KABUSHIKI KAISHA, priority 2023, dated 2025)

Experiments:
Format in all cases: cell-based, human
HepG2 cells [1] = experiment: Cell viability by MTT assay in HepG2 cells without hydrogen peroxide (effect on cell proliferation itself); conditions: without hydrogen peroxide solution; result in words
Description: (§1) A human liver cancer-derived cell line (HepG2: HB-8065™, Lot No. 70029112) was obtained from the American Type Culture Collection, and Dulbecco's Modified Eagle Medium (Thermo Fisher Scientific K.K.) containing 10% FBS was used as the basal medium. The cells were cultured in a 37°C, 5% CO2 incubator, and cells passaged for 17 to 22 generations were used for the experiments.
(§2) A cell suspension adjusted to an initial cell concentration of 2 x 10^4 cells/mL was seeded at 0.15 mL into a 96-well plate (Thermo Fisher Scientific K.K.).
(§3) After 20 hours of culture from seeding, alpha-lipoic acid trisulfide (LASSS) or alpha-lipoic acid trisulfide choline ester (LASSS-CE) was added to the medium in groups with a final concentration of 0.025 mM or 0.05 mM. Separately, a group to which only the solvent for LASSS or LASSS-CE (phosphate-buffered saline (PBS) containing 4% DMSO (FUJIFILM Wako Pure Chemical Corporation)) was added was designated as the solvent-added group. After 4 hours of culture following the sample addition, the medium of the above sample-added groups and the solvent-added group was replaced with a medium (not containing LASSS or LASSS-CE) to which hydrogen peroxide solution (FUJIFILM Wako Pure Chemical Corporation) had been added to a final concentration of 0.1 mM, thereby inducing hepatocyte damage. A group in which the same amount of PBS was added instead of hydrogen peroxide solution to the solvent-added group was designated as the control group. After culturing for 2 hours following the addition of hydrogen peroxide solution or PBS, cell viability was measured by the MTT assay to evaluate the extent of hepatocyte injury. In the table, SD represents standard deviation.
(§4) Furthermore, to evaluate the effect of LASSS and LASSS-CE on cell proliferation itself, a similar experiment was conducted by replacing the addition of hydrogen peroxide solution with the addition of the same amount of PBS, and the cell viability was measured by the MTT assay method.

[2] = as above; conditions: human, hepg2 cells, PBS instead of hydrogen peroxide, control group = 100; for viability at 25 µM: Sample-added group (0.025 mM); for viability at 50 µM: Sample-added group (0.05 mM)
Description: as §1, §2, §3, §4

HepG2 cells [3] = experiment: Cell viability by MTT assay in HepG2 cells with hepatocyte damage induced by hydrogen peroxide; conditions: HepG2 cells damaged by hydrogen peroxide; result in words
Description: as §1, §2
After 20 hours of culture from seeding, alpha-lipoic acid trisulfide (LASSS) or alpha-lipoic acid trisulfide choline ester (LASSS-CE) was added to the medium in groups with a final concentration of 0.025 mM or 0.05 mM. Separately, a group to which only the solvent for LASSS or LASSS-CE (phosphate-buffered saline (PBS) containing 4% DMSO (FUJIFILM Wako Pure Chemical Corporation)) was added was designated as the solvent-added group. […] After culturing for 2 hours following the addition of hydrogen peroxide solution or PBS, cell viability was measured by the MTT assay to evaluate the extent of hepatocyte injury. […]

Compound: O=C(O)CCCCC1CCSSS1 (stereo not drawn) [LASSS, alpha-lipoic acid trisulfide]
- effect on the proliferation of HepG2 cells (HepG2 cells [1]): did not affect the proliferation of HepG2 cells
- viability at 25 µM [2]: 102%
- viability at 50 µM [2]: 102%
- cell viability compared to the hydrogen peroxide-added group (HepG2 cells [3]): an improvement in cell viability was confirmed

Compound: C[N+](C)(C)CCOC(=O)CCCCC1CCSSS1 (stereo not drawn) [LASSS-CE, alpha-lipoic acid trisulfide choline ester]
- effect on the proliferation of HepG2 cells (HepG2 cells [1]): did not affect the proliferation of HepG2 cells
- viability at 25 µM [2]: 109%
- viability at 50 µM [2]: 106%
- cell viability compared to the hydrogen peroxide-added group (HepG2 cells [3]): an improvement in cell viability was confirmed
